Reference: EP4813403A1, “USE OF GLP-1R/GIPR DOUBLE-TARGET AGONIST IN PREPARING ANIMAL DRUG” (Hangzhou Zhongmeihuadong Pharmaceutical Co., Ltd., priority 2023, dated 2025)
Read-outs that look alike come from different tables or passages of the source.

Experiments:
db/db mice [1] = test: Pharmacodynamic effects in db/db mice, single subcutaneous administration (blood glucose); format: in vivo; conditions: single s.c. 10 nmol/kg
Procedure: (§1) In this study, 8-9 week old male db/db mice were used. The db/db mice were placed in an individual ventilated cage (IVC) facility with a controlled temperature (20-26°C) and humidity (40-70%) and a controlled 12h:12 h light-dark cycle. The mice can receive food and water ad libitum. Blood was sampled at the tail tip, and the random base blood glucose was measured by a Roche blood glucose meter. The mice were randomly divided into groups according to the random initial fasting blood glucose and initial body weight (n=6/group), and each group had similar body weight and blood glucose.
After a single subcutaneous administration, the random base blood glucoses were recorded at the set time point (0 to 120 hours, the recording of the random base blood glucose was stopped until there was no difference between the random base blood glucose of the compound and that of the vehicle group), and the daily body weight and food intake were also recorded. The data results were statistically analyzed using GraphPad Prism8, and the statistical differences among the groups were analyzed following a T-Test. Significant differences were identified at p<0.05.
Hypoglycemic Duration: the longest time during which the random base blood glucose of the compound has a significant difference (p<0.05) vs. the vehicle group. Table 13. Hypoglycemic Duration of the Compounds

db/db mice [2] = test: Multiple administration experiment on db/db mice; format: in vivo; conditions: for Efficacy Dose: db/db mice multiple administrations, dose with blood glucose AUC p<0.05 vs. Vehicle; for AUC 4-25 day Glu / D28 FBG(Fasting Blood Glucose) / Liver Weight / Serum ALT / Serum TBIL / Serum TG: db/db mice, s.c. every 3 days for 4 weeks, Mean±SEM, 6 mice
Procedure: "Minimum effective dose" as disclosed in the present invention refers to the minimum administration dose at which the drug effect is produced.
"Efficacy dose" as disclosed in the present invention refers to the administration dose at which the drug effect is produced.
as §1, with “study, 7-8” for “study, 8-9”, “controlled 12:12” for “controlled 12h:12”, “mice received” for “mice can receive”, “Blood were” for “Blood was”, “the” for “the random”, “initial” for “initial fasting”
The mice were subcutaneously administrated every 3 days for 4 weeks. Subcutaneous administration was conducted on days 1, 4, 7, 10, 13, 16, 19, 22 and 25. Random blood glucose was recorded every 3 days throughout the study. On day 28, the fasting blood glucose was measured. Then the blood was collected by orbital blood sampling. After the orbital blood sampling, the animals were sacrificed, and the liver was taken and weighed. After 1 to 2 hours, the collected blood was centrifuged at 3000 rpm for 10 min to separate the serum. Biochemical indicators such as triglyceride (TG), alanine aminotransferase (ALT), and total bilirubin (TBIL) were determined with a biochemical analyzer. The data results were statistically analyzed using GraphPad Prism8, and the statistical differences among the groups were analyzed following T-Test. Significant differences were identified at p<0.05.

human GLP-1R = human GLP-1R (Homo sapiens, UniProt P43220); test: In vitro binding activity to human GLP-1 receptor ([125I]GLP-1 displacement, crude cell membranes); parameters: expressed in transfected cells; conditions: ratio of the Ki value of the endogenous ligand to the Ki value of the test compound; larger ratio = stronger binding
Chain of human GLP-1R (P43220 24-463): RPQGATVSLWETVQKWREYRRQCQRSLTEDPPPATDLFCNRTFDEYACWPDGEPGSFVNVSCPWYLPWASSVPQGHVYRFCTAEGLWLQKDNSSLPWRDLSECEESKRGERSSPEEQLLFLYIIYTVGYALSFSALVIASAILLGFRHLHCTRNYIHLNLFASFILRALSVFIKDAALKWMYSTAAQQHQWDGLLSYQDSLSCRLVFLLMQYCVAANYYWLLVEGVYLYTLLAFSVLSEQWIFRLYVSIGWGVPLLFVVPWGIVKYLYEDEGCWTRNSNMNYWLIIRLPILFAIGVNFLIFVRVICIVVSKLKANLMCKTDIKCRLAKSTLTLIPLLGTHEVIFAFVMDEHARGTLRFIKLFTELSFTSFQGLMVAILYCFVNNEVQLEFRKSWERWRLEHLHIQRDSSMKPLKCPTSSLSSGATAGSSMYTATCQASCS
Procedure: 89 µL of membrane dissolved in binding buffer (50 mM Hepes, pH 7.4, 5 mM MgCl2 , 5 mM EDTA, 0.005% TWEEN, 0.005% HSA) was transferred to a 96-well test plate (5 µg/well). The compound was serially diluted in DMSO, and then, 1 µL of the diluted compound or 100% DMSO was added to the test plate containing the membrane solution. 10 µL of [^125I] […] The test plate was left at room temperature for 90 minutes. The membrane complexes were harvested into a GF/B plate pre-coated with 0.5% PEI by using a Cell Harvester, and washed for 3 times with 500 µL of pre-cooled elution buffer (50 mM Hepes, pH 7.4, 500 mM NaCl) at 4°C. After drying at 37°C for 2 hours, 50 µL of scintillation fluid was added to each well. The plate was read with a MicroBeta2 scintillation counter after sealing and settling for at least 1 hour so as to determine the membrane bound radioligand level.
The IC50 concentration was converted to Ki (Ki was the inhibition constant) using the Cheng-Prusoff equation.

[3] = Pharmacokinetics in cynomolgus monkeys; conditions: cynomolgus monkey, in vivo
Procedure: After subcutaneous or intravenous administration to cynomolgus monkeys, plasma was collected and the drug concentration in plasma was determined to illustrate the in vivo pharmacokinetic properties of the compound according to the present invention. […] 70.0 µL of thawed plasma sample was taken. 70 µL of acetonitrile (containing 1 ng/ml of the internal standard) was added to precipitate protein. […] The mixture was vortexed for 5 minutes. 10 µL of the mixture solution was sampled and injected into the LC-MS/MS to determine the drug concentration in plasma. […] Table 9 Average Pharmacokinetic Parameters after Single Subcutaneous Administration to Cynomolgus Monkeys

[4] = sc, cynomolgus monkeys, single subcutaneous administration, 25 nmol/kg
[5] = cynomolgus monkeys, single intravenous administration, 12.5 nmol/kg

Row | Compound | inhibition of the blood glucose AUC, times of that of Tirzepatide (db/db mice [1]) | Efficacy Dose (db/db mice [2]) | AUC 4-25 day Glu (db/db mice [2]; 3 nmol/kg) | D28 FBG(Fasting Blood Glucose) (db/db mice [2]; 3 nmol/kg) | Liver Weight (db/db mice [2]; 3 nmol/kg) | Serum ALT (db/db mice [2]; 3 nmol/kg) | Serum TBIL (db/db mice [2]; 3 nmol/kg) | Serum TG (db/db mice [2]; 3 nmol/kg) | AUC 4-25 day Glu (db/db mice [2]; 10 nmol/kg) | D28 FBG(Fasting Blood Glucose) (db/db mice [2]; 10 nmol/kg) | Liver Weight (db/db mice [2]; 10 nmol/kg) | Serum ALT (db/db mice [2]; 10 nmol/kg) | Serum TBIL (db/db mice [2]; 10 nmol/kg) | Serum TG (db/db mice [2]; 10 nmol/kg) | AUC 4-25 day Glu (db/db mice [2]; 30 nmol/kg) | D28 FBG(Fasting Blood Glucose) (db/db mice [2]; 30 nmol/kg) | Liver Weight (db/db mice [2]; 30 nmol/kg) | Serum ALT (db/db mice [2]; 30 nmol/kg) | Serum TBIL (db/db mice [2]; 30 nmol/kg) | Serum TG (db/db mice [2]; 30 nmol/kg) | other results
1 | CC[C@H](C)[C@H](NC(=O)C(C)(C)NC(=O)[C@H](Cc1ccc(O)cc1)NC(=O)[C@H](CC(=O)O)NC(=O)[C@H](CO)NC(=O)[C@@H](NC(=O)C(C)(Cc1ccccc1)NC(=O)[C@@H](NC(=O)CNC(=O)[C@H](CCC(=O)O)NC(=O)C(C)(C)NC(=O)[C@@H](N)Cc1ccc(O)cc1)[C@@H](C)O)[C@@H](C)O)C(=O)NC(C)(C)C(=O)N[C@@H](CC(C)C)C(=O)N[C@@H](CC(=O)O)C(=O)N[C@@H](CCCCN)C(=O)N[C@@H](CCC(N)=O)C(=O)N[C@@H](C)C(=O)N[C@@H](CCC(N)=O)C(=O)N[C@@H](C)C(=O)N[C@@H](CCC(=O)O)C(=O)N[C@@H](Cc1ccccc1)C(=O)N[C@H](C(=O)N[C@@H](CCCCNC(=O)COCCOCCNC(=O)COCCOCCNC(=O)CC[C@H](NC(=O)CCCCCCCCCCCCCCCCCCCCC(=O)O)C(=O)O)C(=O)N[C@@H](Cc1c[nH]c2ccccc12)C(=O)N[C@@H](CC(C)C)C(=O)N[C@@H](CC(C)C)C(=O)N[C@@H](CCCCN)C(=O)NCC(=O)NCC(=O)N1CCC[C@H]1C(=O)N[C@@H](CO)C(=O)N[C@@H](CO)C(=O)NCC(=O)N[C@@H](C)C(=O)N1CCC[C@H]1C(=O)N1CCC[C@H]1C(=O)N1CCC[C@H]1C(=O)N[C@@H](CO)C(=O)N[C@@H](CCCCN)C(N)=O)C(C)C (some centres unmarked) [Compound P014] | 1.7 times | 3 nmol/kg | 294 ± 40.43 mmol·days/L | 10.22 ± 1.58 mmol/L | 2.26 ± 0.18 g | 111.24±13.23 U/L | 0.58 ± 0.11 µmol/L | 1.39 ± 0.07 mmol/L | 214.4 ± 33.73 mmol·days/L | 10.72 ± 1.75 mmol/L | 2.1 ± 0.14 g | 89.9±8.66 U/L | 0.58 ± 0.15 µmol/L | 1.29 ± 0.03 mmol/L | 190.62 ± 26.47 mmol·days/L | 13.38 ± 3.38 mmol/L | 1.89 ± 0.31 g | 106.47±14.3 U/L | 0.36 ± 0.15 µmol/L | 1.14 ± 0.18 mmol/L | inhibition of the blood glucose AUC, times of that of P001 (db/db mice [1]): 2.6 times; Hypoglycemic Duration (db/db mice [1]; Group 1, longest time with p<0.05 vs. vehicle): 104 h; GLP-1R Ki ratio (human GLP-1R): 0.37; Tmax ([3]; sc): 16 ± 6.93 h; half-life ([3]; sc): 52.7 ± 6.45 h
2 | CC[C@H](C)[C@H](NC(=O)C(C)(C)NC(=O)[C@H](Cc1ccc(O)cc1)NC(=O)[C@H](CC(=O)O)NC(=O)[C@H](CO)NC(=O)[C@@H](NC(=O)C(C)(Cc1ccccc1)NC(=O)[C@@H](NC(=O)CNC(=O)[C@H](CCC(=O)O)NC(=O)C(C)(C)NC(=O)[C@@H](N)Cc1ccc(O)cc1)[C@@H](C)O)[C@@H](C)O)C(=O)NC(C)(C)C(=O)N[C@@H](CC(C)C)C(=O)N[C@@H](CC(=O)O)C(=O)N[C@@H](CCCCN)C(=O)N[C@@H](CCC(N)=O)C(=O)N[C@@H](C)C(=O)N[C@@H](CCC(N)=O)C(=O)N[C@@H](C)C(=O)N[C@@H](CCC(=O)O)C(=O)N[C@@H](Cc1ccccc1)C(=O)N[C@H](C(=O)N[C@@H](CCCCNC(=O)COCCOCCNC(=O)COCCOCCNC(=O)COCCOCCNC(=O)CC[C@H](NC(=O)CCCCCCCCCCCCCCCCCCCCC(=O)O)C(=O)O)C(=O)N[C@@H](Cc1c[nH]c2ccccc12)C(=O)N[C@@H](CC(C)C)C(=O)N[C@@H](CC(C)C)C(=O)N[C@@H](CCCCN)C(=O)NCC(=O)NCC(=O)N1CCC[C@H]1C(=O)N[C@@H](CO)C(=O)N[C@@H](CO)C(=O)NCC(=O)N[C@@H](C)C(=O)N1CCC[C@H]1C(=O)N1CCC[C@H]1C(=O)N1CCC[C@H]1C(=O)N[C@@H](CO)C(=O)N[C@@H](CCCCN)C(N)=O)C(C)C (some centres unmarked) [Compound P016] | 2.2 times | 3 nmol/kg | 256.38 ± 22 mmol·days/L | 10.42 ± 1.46 mmol/L | 2.24 ± 0.1 g | 137.93±34.59 U/L | 0.82 ± 0.13 µmol/L | 1.21 ± 0.04 mmol/L | 249.25 ± 41.42 mmol·days/L | 12.5 ± 2.19 mmol/L | 1.98 ± 0.12 g | 128.94±16.93 U/L | 1.22 ± 0.28 µmol/L | 1.22 ± 0.24 mmol/L | 163.98 ± 11.57 mmol·days/L | 6.05 ± 0.41 mmol/L | 1.78 ± 0.08 g | 97.7±12.36 U/L | 0.73 ± 0.16 µmol/L | 1.2 ± 0.05 mmol/L | Hypoglycemic Duration (db/db mice [1]; Group 2, longest time with p<0.05 vs. vehicle): 104 h; GLP-1R Ki ratio (human GLP-1R): 0.63; AUC(0-inf) [3, 4]: 323 ± 44.6 µg·h/mL; AUC(0-t) [3, 4]: 319 ± 41.5 µg·h/mL; Cmax [3, 4]: 3000 ± 481 ng/mL; half-life ([3]; sc, cynomolgus monkeys, single subcutaneous administration, 25 nmol/kg, read-out: T1/2 (converted)): 60.4 ± 12.8 h; Tmax ([3]; sc, cynomolgus monkeys, single subcutaneous administration, 25 nmol/kg, read-out: Tmax): 40 ± 13.9 h; AUC(0-inf) [3, 5]: 80 ± 21.1 µg·h/mL; AUC(0-t) [3, 5]: 78.2 ± 20.3 µg·h/mL; C0 [3, 5]: 1700 ± 335 ng/mL; half-life ([3]; cynomolgus monkeys, single intravenous administration, 12.5 nmol/kg, read-out: T1/2 (converted)): 59.8 ± 8.95 h
